This note sets out measurements from ChEMBL document CHEMBL5126521, “Analgesic Opioid Ligand Discovery Based on Nonmorphinan Scaffolds Derived from Natural Sources” (J Med Chem, 2022).

Data set [1] is filed under the species Mus musculus. Put plainly: Antinociceptive activity in mouse by tail pressure test. The data set is classed as functional. The note with it: Mus musculus; read-out: ED50.
The target in data set [2] is Mu-type opioid receptor (Cavia porcellus, UniProt P97266). Kind of data set: Antagonist activity at guinea pig ileum MOP. The data set is classed as functional, tissue-based.
The target in data set [3] is T1, Mu-type opioid receptor (Mus musculus, UniProt P42866). Put plainly: Antagonist activity at mouse brain homogenate MOP. It is filed as functional, tissue-based.
Data set [4] addresses T1, Mu-type opioid receptor. Kind of data set: Antagonist activity at mouse vas deferns MOP. The data set is classed as functional.
For data set [5], the system named is Mus musculus. Put plainly: Antinociceptive activity in mouse administered IV. The data set is classed as functional.
The nature of data set [6]: Toxicity in rat assessed as antinociceptive activity tolerance at 3 to10 nmol/kg measured after 5 days with 62 pmol/h icv infusion relative to control. The conditions noted are these: in vivo, icv_or_intrathecal, 120 h, at 10 nmol/kg, time 5 day.
Data set [7] has as its system Rattus norvegicus. Put plainly: Antinociceptive activity in rat administered icv. It is filed as functional.
Data set [8] relates to Mus musculus. Put plainly: Antinociceptive activity in mouse administered iv by hot plate test. The data set is classed as functional. On the technique in general: Hot-plate and tail-flick tests time the reaction to a heat stimulus.
The species entered for data set [9] is Rattus norvegicus. Kind of data set: Antinociceptive activity in rat. It is filed as functional. The note with it: Rattus norvegicus; read-out: ED50.
Data set [10] has as its system Mus musculus. Put plainly: Antinociceptive activity in mouse administered icv. It is filed as functional.
Data set [11] has as its target T2, Kappa-type opioid receptor (Mus musculus, UniProt P33534). Put plainly: Agonist activity at C57BL6/J mouse brain KOP. It is filed as functional, tissue-based.
Data set [12] concerns the target T2, Kappa-type opioid receptor. Put plainly: Displacement of [3H]U69593 from C57BL6/J mouse brain KOP. The data set is classed as tissue-based.
The target of data set [13] is T2, Kappa-type opioid receptor. Kind of data set: Agonist activity at C57BL6/J mouse brain KOP by calcium mobilization assay. It is filed as functional, tissue-based. Background: Calcium flux is commonly read through the fluorescence of an indicator in the cells.
Data set [14] deals with T3, Mu-type opioid receptor (Homo sapiens, UniProt P35372). Kind of data set: Displacement of [3H]DAMGO from human MOP expressed in CHO-K1 cell membrane incubated for 60 mins by Microscint-counting analysis. It is filed as cell membranes. A general note: In a radioligand displacement assay an active substance lowers the binding of a labelled ligand.
Data set [15] concerns the target T3, Mu-type opioid receptor. Kind of data set: Agonist activity at human MOP expressed in CHO-K1 cell membrane assessed as [35S]GTPgammaS binding. The data set is classed as functional, cell membranes.
Data set [16] has as its target Delta-type opioid receptor (Homo sapiens, UniProt P41143). Put plainly: Displacement of [3H]DPDPE from human DOP expressed in CHO-K1 cell membrane incubated for 60 mins by Microscint-counting analysis. The data set is classed as cell membranes.
The test system of data set [17] is Rattus norvegicus. Put plainly: Antinociceptive activity in Sprague-Dawley rat assessed as tail flick response in warm water administered po. It is filed as functional.
For data set [18], the system named is Mus musculus. Kind of data set: Antinociceptive activity in Std-ddY mouse at 100 mmHg pressure administered po by tail pressure test. The data set is classed as functional.
The subject of data set [19] is Mus musculus. Kind of data set: Antinociceptive activity in Std-ddY mouse at 100 mmHg pressure administered IT by tail pressure test. The data set is classed as functional.
Data set [20] relates to Mus musculus. Put plainly: Antinociceptive activity in ddY mouse assessed as tail-flick latency administered icv by tail flick test. The data set is classed as functional.
Data set [21] relates to Mus musculus. Put plainly: Antinociceptive activity in Std-ddY mouse at 100 mmHg pressure administered icv by tail pressure test. It is filed as functional.
Data set [22] deals with Mus musculus. Put plainly: Antinociceptive activity in ddY mouse assessed as tail-flick latency administered it by tail flick test. The data set is classed as functional.
For data set [23], the system named is Mus musculus. Put plainly: Antinociceptive activity in Std-ddY mouse at 100 mmHg pressure administered sc by tail pressure test. It is filed as functional.
In data set [24] the target is Mu-type opioid receptor (Rattus norvegicus, UniProt P33535). Kind of data set: Displacement of [3H]DAGO from rat brain MOP incubated for 90 mins by scintillation counter. The data set is classed as tissue-based.
Data set [25] can be described thus: Toxicity in rat assessed as inhibition of hypercapnic respiratory response at 9 to 120 nmol icv or sc. The conditions noted are these: in vivo, icv_or_intrathecal, dose 9-120 nmol.
In data set [26] the target is Kappa-type opioid receptor (Cavia porcellus, UniProt P41144). Put plainly: Displacement of [3H]U69593 from guinea pig brain KOP incubated for 90 mins by scintillation counter. It is filed as tissue-based.
The species named for data set [27] is Mus musculus. Kind of data set: Antinociceptive activity in mouse. It is filed as functional.
The subject of data set [28] is Rattus norvegicus. Kind of data set: Antinociceptive activity in rat administered iv. The data set is classed as functional.
Data set [29] deals with Rattus norvegicus. Put plainly: Antinociceptive activity in rat at 9 to 120 nmol icv or sc. It is filed as functional. The note with it: dose 9-120 nmol.
In data set [30] the target is Delta-type opioid receptor (Rattus norvegicus, UniProt P33533). Put plainly: Displacement of [3H][DAla2]deltorphin-I from rat brain DOP incubated for 90 mins by scintillation counter. The data set is classed as tissue-based.
Data set [31] addresses T1, Mu-type opioid receptor. Put plainly: Displacement of [3H]DAMGO from mouse spinal cord MOP measured after 60 mins by liquid scintillation counter analysis. The data set is classed as tissue-based.
The test system of data set [32] is Mus musculus. Put plainly: Antinociceptive activity in mouse administered sc by tail pressure test. The data set is classed as functional.
Data set [33] has as its target Delta-type opioid receptor (Mus musculus, UniProt P32300). Put plainly: Displacement of [3H]deltorphin-II from mouse spinal cord DOP measured after 60 mins by liquid scintillation counter analysis. It is filed as tissue-based.
The subject of data set [34] is Mus musculus. Put plainly: Antinociceptive activity in mouse administered po by tail pressure test. It is filed as functional.
In data set [35] the target is T2, Kappa-type opioid receptor. Kind of data set: Displacement of [3H]U-69593 from mouse spinal cord KOP measured after 60 mins by liquid scintillation counter analysis. It is filed as tissue-based.
The species named for data set [36] is Mus musculus. Kind of data set: Antinociceptive activity in mouse […]. The data set is classed as functional. The conditions noted are these: time 2 hrs.
The test system of data set [37] is Mus musculus. Kind of data set: Antinociceptive activity in ip dosed C57BL/6J mouse assessed as tail withdrawal latency from warm water. The data set is classed as functional.
The target in data set [38] is T3, Mu-type opioid receptor. Kind of data set: Agonist activity at human MOP expressed in CHO-K1 cell membrane assessed as [35S]GTPgammaS binding relative to control. It is filed as functional, cell membranes. The conditions noted are these: filed as agonist.
A short description of data set [39]: Stability in rat plasma assessed as half life. It is filed as ADME, cell-free.
Data set [40] has as its target Kappa-type opioid receptor (Homo sapiens, UniProt P41145). Put plainly: Displacement of [3H]U69593 from human KOP expressed in CHO-K1 cell membrane incubated for 60 mins by Microscint-counting analysis. The data set is classed as cell membranes.
In data set [41] the test system is Rattus norvegicus. Kind of data set: Antinociceptive activity in Sprague-Dawley rat assessed as tail flick response in warm water administered icv. It is filed as functional.
The nature of data set [42]: Stability in human plasma assessed as half life. The data set is classed as ADME, cell-free.
The test system of data set [43] is Rattus norvegicus. Put plainly: Antinociceptive activity in Sprague-Dawley rat assessed as tail flick response in warm water administered iv. It is filed as functional.

Square brackets hold non-standard residues; d marks the D form. Peptide text beside a SMILES is read from it. βAla = NCCC(=O)O Where only a bound is given, the exact number is not on record here.

T3 sequence (P35372 whole entry): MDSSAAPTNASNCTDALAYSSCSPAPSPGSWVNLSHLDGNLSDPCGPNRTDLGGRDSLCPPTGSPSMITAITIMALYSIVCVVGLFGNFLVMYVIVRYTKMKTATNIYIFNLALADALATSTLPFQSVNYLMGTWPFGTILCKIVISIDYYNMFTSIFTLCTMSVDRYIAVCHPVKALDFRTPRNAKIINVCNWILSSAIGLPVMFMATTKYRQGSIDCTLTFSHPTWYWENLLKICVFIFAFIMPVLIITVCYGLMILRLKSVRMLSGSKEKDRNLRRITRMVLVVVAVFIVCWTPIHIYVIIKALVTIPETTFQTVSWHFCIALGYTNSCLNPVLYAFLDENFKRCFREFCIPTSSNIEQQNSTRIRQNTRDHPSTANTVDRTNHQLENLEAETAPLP
T2 sequence (P33534 whole entry): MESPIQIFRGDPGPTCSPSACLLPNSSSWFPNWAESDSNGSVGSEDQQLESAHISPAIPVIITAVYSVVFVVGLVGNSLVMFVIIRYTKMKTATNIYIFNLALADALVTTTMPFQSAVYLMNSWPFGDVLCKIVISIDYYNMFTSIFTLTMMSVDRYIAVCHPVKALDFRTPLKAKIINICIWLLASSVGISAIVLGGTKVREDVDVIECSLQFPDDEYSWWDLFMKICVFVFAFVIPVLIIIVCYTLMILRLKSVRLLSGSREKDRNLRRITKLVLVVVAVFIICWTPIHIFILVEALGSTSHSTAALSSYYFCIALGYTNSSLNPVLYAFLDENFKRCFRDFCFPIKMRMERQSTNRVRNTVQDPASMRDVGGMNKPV
T1 sequence (P42866 whole entry): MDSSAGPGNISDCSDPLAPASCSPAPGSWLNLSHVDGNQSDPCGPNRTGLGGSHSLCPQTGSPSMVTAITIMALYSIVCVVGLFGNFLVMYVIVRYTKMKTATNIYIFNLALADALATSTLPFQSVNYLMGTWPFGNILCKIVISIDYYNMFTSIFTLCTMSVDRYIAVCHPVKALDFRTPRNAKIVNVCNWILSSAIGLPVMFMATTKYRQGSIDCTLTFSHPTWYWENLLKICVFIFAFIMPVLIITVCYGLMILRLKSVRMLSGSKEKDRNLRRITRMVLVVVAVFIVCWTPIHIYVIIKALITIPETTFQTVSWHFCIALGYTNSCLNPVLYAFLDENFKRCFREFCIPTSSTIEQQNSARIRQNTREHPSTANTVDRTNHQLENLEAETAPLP
Mu-type opioid receptor (Cavia porcellus, UniProt P97266), sequence (P97266 whole entry): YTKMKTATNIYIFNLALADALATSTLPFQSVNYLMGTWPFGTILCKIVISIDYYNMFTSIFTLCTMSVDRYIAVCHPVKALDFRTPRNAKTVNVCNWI
Delta-type opioid receptor (Homo sapiens, UniProt P41143), sequence (P41143 whole entry): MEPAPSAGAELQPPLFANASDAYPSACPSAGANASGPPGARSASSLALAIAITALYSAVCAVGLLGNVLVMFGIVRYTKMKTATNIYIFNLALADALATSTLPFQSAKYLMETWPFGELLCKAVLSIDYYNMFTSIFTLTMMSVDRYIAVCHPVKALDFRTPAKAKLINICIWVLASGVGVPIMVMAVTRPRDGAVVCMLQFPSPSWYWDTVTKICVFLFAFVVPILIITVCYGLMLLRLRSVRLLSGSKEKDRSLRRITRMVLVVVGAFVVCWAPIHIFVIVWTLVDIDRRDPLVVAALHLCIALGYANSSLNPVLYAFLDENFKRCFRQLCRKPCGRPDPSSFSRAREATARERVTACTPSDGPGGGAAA
Kappa-type opioid receptor (Cavia porcellus, UniProt P41144), sequence (P41144 whole entry): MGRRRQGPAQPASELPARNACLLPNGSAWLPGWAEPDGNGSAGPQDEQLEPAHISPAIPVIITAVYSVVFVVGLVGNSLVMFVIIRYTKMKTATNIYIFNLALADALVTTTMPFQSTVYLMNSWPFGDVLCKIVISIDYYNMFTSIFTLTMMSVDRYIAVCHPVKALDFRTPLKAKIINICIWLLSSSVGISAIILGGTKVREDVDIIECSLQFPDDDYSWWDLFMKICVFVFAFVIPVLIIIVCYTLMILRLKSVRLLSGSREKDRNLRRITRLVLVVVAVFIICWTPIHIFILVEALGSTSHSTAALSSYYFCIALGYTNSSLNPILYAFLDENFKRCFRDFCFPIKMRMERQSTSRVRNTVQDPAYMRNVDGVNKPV
Kappa-type opioid receptor (Homo sapiens, UniProt P41145), sequence (P41145 whole entry): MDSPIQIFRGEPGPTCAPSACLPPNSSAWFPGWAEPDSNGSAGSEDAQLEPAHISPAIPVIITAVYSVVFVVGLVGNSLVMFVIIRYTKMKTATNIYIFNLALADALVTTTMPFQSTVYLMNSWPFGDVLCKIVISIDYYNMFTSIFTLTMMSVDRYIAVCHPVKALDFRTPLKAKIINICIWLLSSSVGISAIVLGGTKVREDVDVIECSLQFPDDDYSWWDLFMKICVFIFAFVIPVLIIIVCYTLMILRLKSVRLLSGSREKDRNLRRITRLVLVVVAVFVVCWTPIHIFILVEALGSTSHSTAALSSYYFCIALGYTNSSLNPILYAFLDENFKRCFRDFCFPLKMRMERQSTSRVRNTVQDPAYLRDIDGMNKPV
Delta-type opioid receptor (Rattus norvegicus, UniProt P33533), sequence (P33533 whole entry): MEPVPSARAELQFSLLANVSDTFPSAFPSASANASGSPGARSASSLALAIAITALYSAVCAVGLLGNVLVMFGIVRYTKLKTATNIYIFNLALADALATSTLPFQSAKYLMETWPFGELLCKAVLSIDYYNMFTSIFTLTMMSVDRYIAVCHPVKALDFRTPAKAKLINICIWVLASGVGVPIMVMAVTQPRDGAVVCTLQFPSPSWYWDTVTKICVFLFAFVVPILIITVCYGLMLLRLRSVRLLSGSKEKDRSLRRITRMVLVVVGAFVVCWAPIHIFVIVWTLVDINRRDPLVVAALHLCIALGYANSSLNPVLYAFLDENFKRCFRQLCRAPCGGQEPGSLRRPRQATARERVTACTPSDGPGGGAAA
Delta-type opioid receptor (Mus musculus, UniProt P32300), sequence (P32300 whole entry): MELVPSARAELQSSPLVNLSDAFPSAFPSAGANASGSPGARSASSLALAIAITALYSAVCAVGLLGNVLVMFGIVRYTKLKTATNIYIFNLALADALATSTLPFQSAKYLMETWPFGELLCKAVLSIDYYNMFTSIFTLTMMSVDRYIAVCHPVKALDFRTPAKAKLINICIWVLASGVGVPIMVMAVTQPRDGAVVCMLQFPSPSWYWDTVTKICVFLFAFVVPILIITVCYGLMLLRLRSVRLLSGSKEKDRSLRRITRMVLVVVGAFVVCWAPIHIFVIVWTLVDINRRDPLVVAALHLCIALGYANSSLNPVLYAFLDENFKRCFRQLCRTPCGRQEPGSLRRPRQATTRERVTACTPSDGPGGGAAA
Mu-type opioid receptor (Rattus norvegicus, UniProt P33535), sequence (P33535 whole entry): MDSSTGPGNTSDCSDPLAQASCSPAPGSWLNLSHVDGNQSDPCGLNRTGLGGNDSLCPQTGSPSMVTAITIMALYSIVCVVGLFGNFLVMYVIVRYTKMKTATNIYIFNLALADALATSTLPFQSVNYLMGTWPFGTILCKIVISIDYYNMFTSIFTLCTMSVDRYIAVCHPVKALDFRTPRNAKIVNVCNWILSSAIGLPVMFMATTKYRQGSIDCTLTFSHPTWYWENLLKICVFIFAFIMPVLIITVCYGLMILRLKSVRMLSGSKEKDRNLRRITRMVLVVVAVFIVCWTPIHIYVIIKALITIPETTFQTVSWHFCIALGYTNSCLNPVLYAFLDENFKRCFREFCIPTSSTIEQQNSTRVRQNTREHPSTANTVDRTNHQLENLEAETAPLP

`C[C@@H](NC(=O)[C@@H](N)Cc1ccc(O)cc1)C(=O)N[C@@H](Cc1ccccc1)C(=O)NCC(=O)N[C@@H](Cc1ccc(O)cc1)C(=O)N1CCC[C@H]1C(=O)N[C@@H](CO)C(N)=O` [DERMORPHIN]: the ED50 in the data set filed under Mus musculus [1] worked out at 4.6 µmol/kg; in the data set with Mus musculus [5], 0.46 µmol/kg; in the data set on Rattus norvegicus [7] it was 23 pmol; in the data set on Mus musculus [8], 1 µmol/kg; in the data set filed under Rattus norvegicus [9], 1.5 µmol/kg; with Mus musculus [10], 6.7 pmol. For the same compound, the IC50 was determined as 1.1 nM against Mu-type opioid receptor [2], 0.76 nM at Mu-type opioid receptor [3] and 16.5 nM against Mu-type opioid receptor [4]. For the same compound, the Activity in data set [6] came to 63%.
Take `CCC(=O)O[C@H]1C[C@@H](C(=O)OC)[C@]2(C)CC[C@H]3C(=O)O[C@H](c4ccoc4)C[C@]3(C)[C@H]2C1=O`: the EC50 in [11] came out at 17 nM; in data set [13], 102 nM. The inhibition constant (Ki) in [12] worked out at 32.6 nM.
Regarding `NC(=O)[C@@H]1CCCCNC(=O)CC[C@@H](NC(=O)[C@@H](N)Cc2ccc(O)cc2)C(=O)N[C@@H](Cc2ccccc2)C(=O)N[C@@H](Cc2ccccc2)C(=O)N1`, the Ki on Mu-type opioid receptor [14] turned out to be 0.96 nM; in data set [16] it was 82 nM. Moreover, the EC50 at Mu-type opioid receptor [15] worked out at 1.5 nM. Further, the ED50 in the data set with Rattus norvegicus [17] was 3.5 µmol.
For the compound `N=C(N)NCCC[C@@H](NC(=O)[C@@H](N)Cc1ccc(O)cc1)C(=O)N[C@@H](Cc1ccccc1)C(=O)NCCC(=O)O`, the ED50 in the data set with Mus musculus [18] came out at 70.1 µmol/kg; in the data set with Mus musculus [19] it was 0.5 pmol; in the data set on Mus musculus [20] it was 1.3 pmol; with Mus musculus [21], 3.1 pmol; in the data set on Mus musculus [22] it was 0.3 pmol; with Mus musculus [23], 0.8 µmol/kg.
With `C[C@@H](NC(=O)[C@@H](N)Cc1ccc(O)cc1)C(=O)N[C@@H](Cc1ccccc1)C(=O)NCC(=O)N[C@@H](Cc1ccc(O)cc1)C(=O)N1CCC[C@H]1C(=O)N[C@@H](CCCCN)C(N)=O`, the Ki is 0.09 nM at Mu-type opioid receptor [24], 617 nM in data set [26] and 1100 nM in data set [30]. Also, the IC50 against Mu-type opioid receptor [2] came out at 1.7 nM; at Mu-type opioid receptor [4], 52 nM. Further, the Activity in [25] came to 45.9 µmol/kg. Moreover, the ED50 in the data set listed under Mus musculus [27] was found to be 0.22 µmol/kg; in the data set with Rattus norvegicus [7], 0.03 pmol; in the data set on Rattus norvegicus [28], 0.06 µmol/kg; in the data set with Rattus norvegicus [29] it was 21.5 µmol/kg.
Turning to `CN(CCC(=O)O)C(=O)[C@H](Cc1ccccc1)NC(=O)[C@@H](CCCNC(=N)N)NC(=O)[C@H](Cc1ccc(O)cc1)NC(=N)N`, the results for the Ki (at Mu-type opioid receptor [31]; in [33]; in [35]) were 12.9 nM, over 1000 nM and over 1000 nM, respectively. Besides, the ED50 with Mus musculus [32] was found to be 0.09 mg/kg; in the data set on Mus musculus [34] it was 5.8 mg/kg; in the data set filed under Mus musculus [36], 0.07 mg/kg.
Consider `O=C1NCCC(=O)N2CCC[C@@H]2C(=O)N[C@@H](Cc2ccccc2)C(=O)N[C@H]1Cc1c[nH]c2ccccc12` (cyclo(FW[βAla][dP])), for which the ED50 in the data set with Mus musculus [37] was 0.64 mg/kg.
`NC(=O)CNC(=O)[C@@H]1CCC(=O)NCCCC[C@@H](NC(=O)[C@@H](N)Cc2ccc(O)cc2)C(=O)N[C@@H](Cc2c[nH]c3ccccc23)C(=O)N[C@@H](Cc2ccccc2)C(=O)N1`: at Mu-type opioid receptor [38], the Emax worked out at 100%. Moreover, the figures for the Ki (on Mu-type opioid receptor [14]; in [16]; in [40]) were 0.68 nM, 127 nM and 5120 nM, respectively. At Mu-type opioid receptor [15], the EC50 was determined as 1.01 nM. Also, the half-life was 81 h in [39] and 150 h in data set [42]. Moreover, the ED50 in the data set with Rattus norvegicus [41] came to 0.019 nmol; in the data set on Rattus norvegicus [43] it was 1.5 mg/kg.

As a reminder, the IC50 is the concentration that gives 50% inhibition. Low readings indicate greater potency in that assay, high ones weaker potency in that assay. Broadly, the EC50 is the concentration needed to bring the measured effect to its halfway point. As usually defined, the Ki is the equilibrium dissociation constant of an inhibitor or competing ligand from its target. Read a high Ki as weaker binding. What is called Emax is the maximal effect, on the per cent scale that the assay sets. As usually defined, the half-life is the time needed for the level to fall by half in the phase considered.
